Source: ChEMBL document CHEMBL4402519, “The Mediterranean Diet as source of bioactive compounds with multi-targeting anti-cancer profile” (Eur J Med Chem, 2019)
Values after ≈ are worked out from the molar mass of the structure shown.

Tests used:
[1] = test system: HL-60; experiment: Growth inhibition of human HL60 cells after 72 hrs by MTT assay; assay type: functional, cell-based; details: HL-60, 72 h
[2] = test system: PC-3; experiment: Antiproliferative activity against human PC3 cells after 24 hrs by MTT assay; assay type: functional, cell-based; details: PC-3, 24 h
[3] = test system: PC-3; experiment: Antiproliferative activity against human PC3 cells after 48 hrs by MTT assay; assay type: functional, cell-based; details: PC-3, 48 h
[4] = test system: COLO 205; experiment: Induction of apoptosis in human COLO205 cells after 24 hrs relative to control; assay type: functional
[5] = test system: COLO 205; experiment: Induction of apoptosis in human COLO205 cells after 24 hrs; assay type: functional, cell-based; details: COLO 205, 24 h

IC50 [1]	SMILES	also measured
0.01 to 0.94 µg/mL (≈ 0.0329 to 3.09 µM)	O=C1c2c(O)cc(O)cc2O[C@H](c2ccc(O)c(O)c2)[C@H]1O [(+)-TAXIFOLIN]	
	COc1ccc([C@@H]2CC(=O)c3c(O)cc(O)cc3O2)cc1O [HESPERETIN]	IC50 [2]: 90 µM; IC50 [3]: 40 µM
0.01 to 0.94 µg/mL (≈ 0.0249 to 2.34 µM)	COc1ccc(-c2cc(=O)c3c(OC)c(OC)c(OC)c(OC)c3o2)cc1OC [NOBILETIN]	
	CC(C)c1cc2c(c(O)c1O)[C@@]13CCCC(C)(C)[C@@H]1[C@H](OC3=O)[C@H]2O [ROSMANOL]	Activity [4]: 51%; IC50 [5]: 42 µM
0.01 to 0.94 µg/mL (≈ 0.0269 to 2.52 µM)	COc1ccc(-c2cc(=O)c3c(OC)c(OC)c(OC)c(OC)c3o2)cc1 [TANGERETIN]	

SMILES	IC50 [1]	also measured
O=c1c(O)c(-c2ccc(O)c(O)c2)oc2cc(O)cc(O)c12 [QUERCETIN]	0.01 to 0.94 µg/mL (≈ 0.0331 to 3.11 µM)	
